In paper PMC8079988, “Inhibition of TMEM16A by Natural Product Silibinin: Potential Lead Compounds for Treatment of Lung Adenocarcinoma” (Frontiers in Pharmacology, 2021):

Target: T1, TMEM16A (Mus musculus, UniProt Q8BHY3)
T1 construct: gene Ano1
T1 sequence (Q8BHY3 1-960): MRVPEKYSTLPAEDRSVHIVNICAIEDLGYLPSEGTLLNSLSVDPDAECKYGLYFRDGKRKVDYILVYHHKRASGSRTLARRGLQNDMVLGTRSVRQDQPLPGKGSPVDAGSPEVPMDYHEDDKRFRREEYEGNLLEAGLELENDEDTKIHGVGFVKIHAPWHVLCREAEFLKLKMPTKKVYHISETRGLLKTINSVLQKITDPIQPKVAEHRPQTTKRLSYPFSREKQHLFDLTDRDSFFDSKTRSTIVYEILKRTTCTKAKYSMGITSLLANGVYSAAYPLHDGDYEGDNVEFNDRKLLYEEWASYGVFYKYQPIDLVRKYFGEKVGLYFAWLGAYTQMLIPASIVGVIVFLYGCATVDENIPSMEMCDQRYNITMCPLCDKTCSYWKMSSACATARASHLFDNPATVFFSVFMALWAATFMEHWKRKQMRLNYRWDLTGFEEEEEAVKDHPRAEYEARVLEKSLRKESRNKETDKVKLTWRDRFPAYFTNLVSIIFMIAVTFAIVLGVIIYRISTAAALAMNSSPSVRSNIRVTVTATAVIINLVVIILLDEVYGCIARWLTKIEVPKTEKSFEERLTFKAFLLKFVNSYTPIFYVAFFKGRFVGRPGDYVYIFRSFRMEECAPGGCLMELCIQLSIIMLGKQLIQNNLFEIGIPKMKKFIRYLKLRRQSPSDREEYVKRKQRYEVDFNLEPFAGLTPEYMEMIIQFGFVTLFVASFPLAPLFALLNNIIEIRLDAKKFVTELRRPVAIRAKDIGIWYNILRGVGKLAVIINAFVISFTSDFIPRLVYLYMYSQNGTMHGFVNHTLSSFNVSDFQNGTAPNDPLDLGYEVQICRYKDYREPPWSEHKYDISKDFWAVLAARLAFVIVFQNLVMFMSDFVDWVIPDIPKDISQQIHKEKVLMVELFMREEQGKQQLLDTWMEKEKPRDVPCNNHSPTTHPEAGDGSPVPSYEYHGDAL
Test: whole-cell patch clamp in LA795 cells; YFP quenching; site-directed mutagenesis
Type: cell-based

`COc1cc(C2Oc3cc([C@H]4Oc5cc(O)cc(O)c5C(=O)[C@@H]4O)ccc3OC2CO)ccc1O` (stereo partly shown) [silibinin] showed an IC50 of 30.9 ± 2.1 µM.
